Data set [1] in a line: LogP by HPLC on reversed phase columns (EEC directive 79/831 Annex V.A8). It is filed as physicochemical. The settings on record: method [a]: LC-UV, acidic range, 0.1% formic acid in water and acetonitrile as eluent; for chromatographic logP: reversed phase HPLC column. How it is done:
Measurement of LogP values was performed according to EEC directive 79/831 Annex V.A8 by HPLC (High Performance Liquid Chromatography) on reversed phase columns with the following methods: • ^[a] […] Lambda-max-values were determined using UV-spectra from 200 nm to 400 nm and the peak values of the chromatographic signals.

A further data set has as its system Puccinia recondita. As to the kind of experiment: Example A: in vivo preventive test on Puccinia recondita (brown rust on wheat). As to conditions: 264 h, 500 ppm of active ingredient, preventive spray, evaluated 11 days after inoculation, read-out: efficacy. As to the method: (§1) The test is evaluated 11 days after the inoculation.
In data set [2] the test system is Blumeria graminis f sp. hordei. The data set can be described thus: Example E: in vivo preventive Blumeria test (barley). The settings on record: 168 h, 500 ppm of active ingredient, preventive spray, evaluated 7 days after inoculation, read-out: efficacy. As to the method: • Solvent: 49 parts by weight of N,N-dimethylacetamide • Emulsifier: 1 part by weight of alkylaryl polyglycol ether To produce a suitable preparation of active compound, 1 part by weight of active compound or active compound combination was mixed with the stated amounts of solvent and emulsifier, and the concentrate was diluted with water to the desired concentration. To test for preventive activity, young plants were sprayed with the preparation of active compound or active compound combination at the stated rate of application. After the spray coating had been dried, the plants were dusted with spores of Blumeria graminis f sp. hordei. The plants were placed in the greenhouse at a temperature of approximately 18° C. and a relative atmospheric humidity of approximately 80% to promote the development of mildew pustules. The test was evaluated 7 days after the inoculation.

In data set [3] the test system is Sphaerotheca fuliginea. As to the kind of experiment: Example C: in vivo preventive test on Sphaerotheca fuliginea (powdery mildew on cucurbits). As to conditions: Podosphaera fuliginea, 360 h; 500 ppm of active ingredient; gherkin; preventive spray; evaluated 15 days after inoculation; read-out: efficacy. How it is done:
The test is evaluated 15 days after the inoculation.

Another data set has as its system Uromyces appendiculatus. As to the kind of experiment: Example D: in vivo preventive test on Uromyces appendiculatus (bean rust). The settings on record: 264 h, 500 ppm of active ingredient, preventive spray, evaluated 11 days after inoculation, read-out: efficacy. How it is done: as §1
For a further data set, the system named is Septoria tritici. As to the kind of experiment: Example G: in vivo 5 days preventive Septoria tritici test (wheat), comparison vs. WO-A 2010/146116. The settings on record: inoculated 5 days after spraying, evaluated 21 days after inoculation. How it is done: • Solvent: 49 parts by weight of N,N-dimethylacetamide • Emulsifier: 1 part by weight of alkylaryl polyglycol ether To produce a suitable preparation of active compound, 1 part by weight of active compound or active compound combination is mixed with the stated amounts of solvent and emulsifier, and the concentrate is diluted with water to the desired concentration. To test for preventive and long-lasting activity, young plants are sprayed with a preparation of active compound or active compound combination at the stated rate of application. After the spray coating has been dried, the plants are placed in the greenhouse at a temperature of approximately 15° C. and a relative atmospheric humidity of approximately 80%. 5 days later the plants are sprayed with a spore suspension of Septoria tritici. The plants remain for 48 hours in an incubation cabinet at approximately 20° C. and a relative atmospheric humidity of approximately 100% and afterwards for 60 hours at approximately 15° C. in a translucent incubation cabinet at a relative atmospheric humidity of approximately 100%. Then the plants are placed in the greenhouse at a temperature of approximately 15° C. and a relative atmospheric humidity of approximately 80%. The test is evaluated 21 days after the inoculation.

The test system of data set [4] is Sphaerotheca fuliginea. The data set can be described thus: Example H: in vivo preventive test on Sphaerotheca (cucumbers), comparison vs. WO-A 2010/146116. As to conditions: evaluated 7 days after inoculation. How it is done:
To produce a suitable preparation of active compound, 1 part by weight of active compound is mixed with the stated amounts of solvent and emulsifier, and the concentrate is diluted with water to the desired concentration. To test for preventive activity, young plants are sprayed with the preparation of active compound at the stated rate of application. After the spray coating has dried on, the plants are inoculated with an aqueous spore suspension of Sphaerotheca fuliginea. The plants are then placed in a greenhouse at approximately 23° C. and a relative atmospheric humidity of approximately 70%. The test is evaluated 7 days after the inoculation.

A word on the LogP: it is the decadic logarithm of the partition coefficient of the neutral form, usually between octanol and water. A lower LogP goes with lower lipophilicity. Turning to `CCC1COC(Cn2cncn2)(c2ccc(Oc3ccc(S(F)(F)(F)(F)F)cc3)nc2C(F)(F)F)O1` (mixture of isomers) [I.01], the LogP in data set [1] was 4.15^[a].

Turning to `CC1COC(Cn2cncn2)(c2ccc(Oc3ccc(Cl)cc3)nc2C(F)(F)F)O1` (mixture of isomers) [I.03], the LogP in data set [1] is 3.55^[a].

For the molecule `CCCC1COC(Cn2cncn2)(c2ccc(Oc3ccc(Cl)cc3)nc2C(F)(F)F)O1` (mixture of isomers) [I.05], the log partition coefficient (LogP) in data set [1] was 4.19^[a].

With `CCC1COC(Cn2cncn2)(c2ccc(Oc3ccc(Br)cc3)nc2C(F)(F)F)O1` (mixture of isomers) [I.06], the LogP in data set [1] was 3.94^[a].

Take `CCCC1COC(Cn2cncn2)(c2ccc(Oc3ccc(Br)cc3)nc2C(F)(F)F)O1` (mixture of isomers) [I.08]: in data set [1], the LogP was 4.32^[a].

`CC1COC(Cn2cncn2)(c2ccc(Oc3ccc(C(F)(F)F)cc3)nc2C(F)(F)F)O1` (mixture of isomers) [I.10]: in data set [1], the lipophilicity (LogP) is 3.62^[a].

As for `CCC1COC(Cn2cncn2)(c2ccc(Oc3ccc(Cl)cc3)nc2C(F)(F)F)O1` (mixture of isomers) [I.15], the LogP in data set [1] is 3.83^[a].

With `CC1OC(Cn2cncn2)(c2ccc(Oc3ccc(Br)cc3)nc2C(F)(F)F)OC1C` (mixture of isomers) [I.17], the log partition coefficient (LogP) in data set [1] was 3.85^[a].

As to `CC1OC(Cn2cncn2)(c2ccc(Oc3ccc(Cl)cc3)nc2C(F)(F)F)OC1C` (mixture of isomers) [I.18], the LogP in data set [1] is 3.76^[a].

In the case of `CC1COC(Cn2cncn2)(c2ccc(Oc3ccc(S(F)(F)(F)(F)F)cc3)nc2C(F)(F)F)O1` (mixture of isomers) [I.19], the LogP in data set [1] was 3.85^[a].

As for `CC1COC(Cn2cncn2)(c2ccc(Oc3ccc(OC(F)(F)F)cc3)nc2C(F)(F)F)O1` (mixture of isomers) [I.21], in data set [1], the LogP was 3.76 ^[a].

Take `CC1COC(Cn2cncn2)(c2ccc(Oc3ccc(Cl)cc3)nc2C(F)(F)F)O1` (racemic) [I.09]: the lipophilicity (LogP) in data set [1] was 3.46^[a].

For the molecule `FC(F)(F)c1nc(Oc2ccc(Br)cc2)ccc1C1(Cn2cncn2)OCC(C(F)(F)F)O1` (racemic) [I.23], in data set [1], the lipophilicity (LogP) is 3.80 ^[a].

In the case of `FC(F)(F)c1nc(Oc2ccc(Br)cc2)ccc1C1(Cn2cncn2)OCC(C(F)(F)F)O1` (racemic) [I.26], the LogP in data set [1] is 2.26 ^[a].

On to `CC1COC(Cn2cncn2)(c2ccc(Oc3ccc(Cl)cc3)nc2C(F)(F)F)O1` (single isomer, unassigned) [I.12], for which the log partition coefficient (LogP) in data set [1] was 3.48^[a].

As for `CC1COC(Cn2cncn2)(c2ccc(Oc3ccc(Cl)cc3)nc2C(F)(F)F)O1` (single isomer, unassigned) [I.13], the LogP in data set [1] was 3.48^[a].

What is called chromatographic logP is a lipophilicity value derived from retention on a column. Regarding `FC(F)(F)c1ccc(Oc2ccc(C3(Cn4nc[nH]c4=S)OCCO3)c(C(F)(F)F)n2)cc1` [I-S.01, 2-[[2-[2-(trifluoromethyl)-6-[4-(trifluoromethyl)phenoxy]-3-pyridyl]-1,3-dioxolan-2-yl]methyl]-4H-1,2,4-triazole-3-thione], the pest or weed control at 500 ppm (in the data set on Puccinia recondita; in data set [2]; in the data set on Sphaerotheca fuliginea [3]; in the data set on Uromyces appendiculatus) was 90 to 100% throughout. Further, the chromatographic logP in data set [1] stood at 3.18.

For `FC(F)(F)c1nc(Oc2ccc(Cl)cc2)ccc1C1(Cn2nc[nH]c2=S)OCCO1` [I-S.02, 2-[[2-[6-(4-chlorophenoxy)-2-(trifluoromethyl)-3-pyridyl]-1,3-dioxolan-2-yl]methyl]-4H-1,2,4-triazole-3-thione], the pest or weed control at 500 ppm (with Puccinia recondita; in data set [2]; in the data set on Sphaerotheca fuliginea [3]; in the data set on Uromyces appendiculatus) was 90 to 100% throughout. Also, the chromatographic logP in data set [1] came to 3.06.

Regarding `Cc1ccc(Oc2ccc(C3(Cn4nc[nH]c4=S)OCCO3)c(C(F)(F)F)n2)cc1` [I-S.03], the log partition coefficient (LogP) in data set [1] was 2.94 ^[a].

As to `CSc1ccc(Oc2ccc(C3(Cn4nc[nH]c4=S)OCCO3)c(C(F)(F)F)n2)cc1` [I-S.04], the LogP in data set [1] was 2.95 ^[a].

For `FC(F)(F)c1nc(Oc2ccc(Br)cc2)ccc1C1(Cn2nc[nH]c2=S)OCCO1` [I-S.05], the log partition coefficient (LogP) in data set [1] is 3.14 ^[a].

`FC(F)(F)c1nc(Oc2ccc(Br)cc2)ccc1C1(Cn2cncn2)OCCO1` [I.02]: the pest or weed control at 500 ppm (with Puccinia recondita; in data set [2]; with Sphaerotheca fuliginea [3]; in the data set on Uromyces appendiculatus) was 90 to 100% each time. The Efficacy in % with Septoria tritici (rate of application 100 ppm) came to 93%; in the data set with Septoria tritici (rate of application 500 ppm), 100%. In data set [1], this molecule returned a chromatographic logP of 3.35.

Consider `CCC1COC(Cn2cncn2)(c2ccc(Oc3ccc(C(F)(F)F)cc3)nc2C(F)(F)F)O1` (stereo not drawn) [I.07, 3-[4-ethyl-2-(1,2,4-triazol-1-ylmethyl)-1,3-dioxolan-2-yl]-2-(trifluoromethyl)-6-[4-(trifluoromethyl)phenoxy]pyridine], for which the pest or weed control at 500 ppm (with Puccinia recondita; in data set [2]; with Sphaerotheca fuliginea [3]; with Uromyces appendiculatus) was 90 to 100% in each case. The chromatographic logP in data set [1] is 3.96.

For `FC(F)(F)c1nc(Oc2ccc(S(F)(F)(F)(F)F)cc2)ccc1C1(Cn2cncn2)OCCO1` [I.11], the pest or weed control at 500 ppm is 90 to 100% in the data set on Puccinia recondita, 70 to 79% in data set [2], 90 to 100% in the data set with Sphaerotheca fuliginea [3] and 90 to 100% in the data set on Uromyces appendiculatus. Moreover, the Efficacy in % in the data set with Septoria tritici (rate of application 100 ppm) is 71%; in the data set with Septoria tritici (rate of application 500 ppm), 100%. In data set [1], the chromatographic logP was 3.54.

Regarding `CC1COC(Cn2cncn2)(c2ccc(Oc3ccc(Br)cc3)nc2C(F)(F)F)O1` (stereo not drawn) [I.16, 6-(4-bromophenoxy)-3-[4-methyl-2-(1,2,4-triazol-1-ylmethyl)-1,3-dioxolan-2-yl]-2-(trifluoromethyl)pyridine], the pest or weed control at 500 ppm (in the data set with Puccinia recondita; in data set [2]; in the data set on Sphaerotheca fuliginea [3]; with Uromyces appendiculatus) was 90 to 100% in each case. The same molecule gave a lipophilicity (LogP) in data set [1] of 3.55. This molecule returned a chromatographic logP in data set [1] of 3.59.

For the molecule `CSc1ccc(Oc2ccc(C3(Cn4cncn4)OCCO3)c(C(F)(F)F)n2)cc1` [I.20], the log partition coefficient (LogP) in data set [1] was 3.05 ^[a].

For the molecule `FC(F)(F)Oc1ccc(Oc2ccc(C3(Cn4cncn4)OCCO3)c(C(F)(F)F)n2)cc1` [I.22], the LogP in data set [1] was 3.46 ^[a].

Regarding `CCC1COC(Cn2cncn2)(c2ccc(Oc3ccc(OC(F)(F)F)cc3)nc2C(F)(F)F)O1` (stereo not drawn) [I.24], the LogP in data set [1] was 4.09 ^[a].

`Cc1ccc(Oc2ccc(C3(Cn4cncn4)OCCO3)c(C(F)(F)F)n2)cc1` [I.25]: in data set [1], the LogP is 3.21 ^[a].

Regarding `CC1(c2ccc(Oc3ccc(Cl)cc3)nc2C(F)(F)F)OCCO1` [XV.01, 6-(4-chlorophenoxy)-3-(2-methyl-1,3-dioxolan-2-yl)-2-(trifluoromethyl)pyridine], the chromatographic logP in data set [1] came to 4.44.

For `Clc1ccc(Oc2cc(Cl)c(C3(Cn4cncn4)OCCO3)cn2)cc1` [drawing 80, reference compound], the values for the Efficacy in % in the data set on Septoria tritici (rate of application 100 ppm) and in the data set with Septoria tritici (rate of application 500 ppm) were 50% and 80%, respectively.

With `Clc1ccc(Oc2cc(Cl)c(C3(Cn4cncn4)OCCO3)cn2)cc1` [drawing 85, reference compound], the Efficacy in % in the data set on Sphaerotheca fuliginea [4] (rate of application 10 ppm) came to 14%; in the data set with Sphaerotheca fuliginea [4] (rate of application 100 ppm), 100%.

The values above are taken from patent US20190211002A1, “NOVEL TRIAZOLE DERIVATIVES” (Bayer CropScience Aktiengesellschaft, priority 2016, published 2019).
